Measured values reported in PubChem BioAssay (NCI).
Where “and” joins values, the source holds several entries; their conditions need not be identical. Equal entries are not always repeated.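 Protocol summary: plate cells (96-well), add compound at 5 concentrations, incubate 48 h, interpolate endpoints linearly. The concentration for 50% growth inhibition is given as GI50. TGI: total growth inhibition.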

Tests used:
Test in all cases: NCI anticancer screen, dose series, 48 h
CAKI-1 renal = test system: CAKI-1 renal
HOP-92 NSCLC = test system: HOP-92 NSCLC
IGROV1 ovarian = test system: IGROV1 ovarian
MALME-3M melanoma = test system: MALME-3M melanoma
MCF7 breast = test system: MCF7 breast
MDA-MB-435 = test system: MDA-MB-435
NCI-H226 lung = test system: NCI-H226 lung
SF-295 CNS = test system: SF-295 CNS
SK-MEL-2 melanoma = test system: SK-MEL-2 melanoma
SNB-19 CNS = test system: SNB-19 CNS

| Compound | GI50 (CAKI-1 renal) | TGI (CAKI-1 renal) | GI50 (HOP-92 NSCLC) | TGI (HOP-92 NSCLC) | GI50 (IGROV1 ovarian) | TGI (IGROV1 ovarian) | GI50 (MALME-3M melanoma) | TGI (MALME-3M melanoma) | GI50 (MCF7 breast) | TGI (MCF7 breast) | GI50 (MDA-MB-435) | TGI (MDA-MB-435) | GI50 (NCI-H226 lung) | TGI (NCI-H226 lung) | GI50 (SF-295 CNS) | TGI (SF-295 CNS) | GI50 (SK-MEL-2 melanoma) | TGI (SK-MEL-2 melanoma) | GI50 (SNB-19 CNS) | TGI (SNB-19 CNS) |
| --- | --- | --- | --- | --- | --- | --- | --- | --- | --- | --- | --- | --- | --- | --- | --- | --- | --- | --- | --- | --- |
| c1cn2cc(-c3ccc4cn[nH]c4c3)nc(Nc3ccc(N4CCOCC4)cc3)c2n1 | 8.4 µM | 44.3 µM | 15.6 µM | 33.8 µM | 16.5 µM | 46 µM | 10.4 µM | 27.3 µM | 10.6 µM | 25.1 µM | 12.8 µM | > 100 µM | 4.82 µM | 24.6 µM | 10.6 µM | 29.5 µM | 36.1 µM | > 100 µM | 11.2 µM | 30.8 µM |
| O=c1[nH]cnc2[nH]ncc12 | 97.2 µM | > 5000 µM | 163 µM | > 3250 µM | 54.6 µM and 422 µM | > 5000 µM | 1330 µM | > 5000 µM | 259 µM | > 5000 µM | 380 µM | > 5000 µM | 878 µM | > 5000 µM | 349 µM | > 5000 µM | > 36.5 µM and 257 µM | > 5000 µM | > 5000 µM | > 5000 µM |
| COc1ccc(-n2c3c(c4c(CN5CCOCC5)c(O)ccc42)CCc2ccccc2C3=O)cc1 | 37.8 µM | > 100 µM | 59.5 µM | > 100 µM | 37.6 µM | > 100 µM | > 100 µM | > 100 µM | > 100 µM | > 100 µM | 12.1 µM | 47.8 µM | 54.5 µM | > 100 µM | > 100 µM | > 100 µM | > 100 µM | > 100 µM | > 100 µM | > 100 µM |
| c1ccc(-n2nnnc2-c2cccc3ccccc23)cc1 | 0.465 µM | > 100 µM | 1.19 µM | 24.3 µM | 1.56 µM | > 100 µM | 0.635 µM | > 100 µM | 0.562 µM | > 100 µM | 0.121 µM | 0.489 µM | 15.5 µM | > 100 µM | 0.395 µM | 19.9 µM | 3.68 µM | > 63.1 µM | 0.859 µM | > 100 µM |
| O=c1cc(-c2ccccc2)[nH]n1-c1nc2ccccc2[nH]1 | 3.42 µM | > 100 µM | 4.25 µM | 47.7 µM | 6.81 µM | > 100 µM | 17.7 µM | > 100 µM | 3.89 µM | > 100 µM | 5.07 µM | > 100 µM | 9.49 µM | > 100 µM | 2.92 µM | > 100 µM | 9.32 µM | 66.8 µM | 4.89 µM | > 100 µM |
| O=C(N/N=C/c1ccc([N+](=O)[O-])cc1)c1ccc2nc(-c3ccc(Cl)cc3)[nH]c2c1 | 3.49 µM | 16.1 µM | 0.985 µM | 7.52 µM | 3.04 µM | 11.4 µM | 1.48 µM | 5 µM | 0.582 µM | 2.85 µM | 3.57 µM | 12.2 µM | 5.03 µM | 31.2 µM | 3.4 µM | 13.1 µM | 5.1 µM | 21.9 µM | 7.48 µM | 32.4 µM |
| COc1ccc(Cl)cc1NC(=O)C(Br)C(Br)C(=O)O (stereo not given) | 16.7 µM | 49.1 µM | 12.8 µM | 33.1 µM | 33.2 µM | > 73.5 µM | 9.88 µM | 28.8 µM | 3.23 µM | > 47.9 µM | 4.27 µM | 20.7 µM | 13.7 µM | 35.9 µM | 38.9 µM | > 100 µM | 7.54 µM | 26.2 µM | 27.9 µM | > 68.7 µM |
| COC(=O)C1(F)C(=O)NC(=O)NC1O (stereo not given) |  | > 100 µM |  | > 100 µM |  | > 100 µM |  | > 100 µM |  | > 100 µM |  | > 100 µM |  | > 100 µM |  | > 100 µM |  | > 100 µM |  | > 100 µM |
| CN1CCN(Cc2ccc(NC(=O)c3ccc(C#Cc4c(N)ncc5ccc(F)cc45)cc3)cc2C(F)(F)F)CC1 | 1.97 µM | 7.55 µM | 0.705 µM | 1.45 µM | 1.13 µM | 2.56 µM | 0.945 µM | 1.8 µM | 0.837 µM | 1.59 µM | 0.874 µM | 1.59 µM | 1.07 µM | 2.6 µM | 1.04 µM | 2.04 µM | 1.08 µM | 2.04 µM | 1.09 µM | 1.91 µM |
| O=C(Nc1ccccc1O)c1ccc(Oc2cccc(C(=O)Nc3ccccc3O)c2)cc1 | 1.91 µM | 8.86 µM | 1.57 µM | 6.07 µM | 5.25 µM | 27.3 µM | 1.48 µM | 14 µM | 2.57 µM | 11.5 µM | 0.294 µM | 10.2 µM | 2.06 µM | 10.8 µM | 2.88 µM | 9.85 µM | 1.73 µM | 5.87 µM | 2.08 µM | 14.4 µM |
| O=C(Cc1cccc(OC(F)(F)F)c1)Nc1ccc(CCCCc2nnc(NC(=O)Cc3ccccn3)s2)nn1 | 4.81 µM | > 100 µM | 6.19 µM | 25.9 µM | 17.3 µM | > 100 µM | 28.6 µM | > 100 µM | 16.5 µM | > 100 µM | 30.4 µM | > 100 µM | 15.1 µM | 54.1 µM | 11.5 µM | 31.4 µM | 19 µM | 47.5 µM | 29.4 µM | > 100 µM |
| O=C(Nc1ccc(Cl)cc1)c1cc(-c2ccc(Cl)cc2)c2sc(=O)[nH]c2n1 | 1.95 µM | 13.1 µM | 0.526 µM | 3.94 µM | 2.83 µM | 28.9 µM | 2.31 µM | 6.25 µM | 1.78 µM | 9.26 µM | 2.7 µM | 11.2 µM | 2.26 µM | 9.18 µM | 1.56 µM | 4.37 µM | 1.18 µM | 3.99 µM | 3.64 µM | > 100 µM |
| Cc1ccc(SC2=CC(=O)c3nc4ccccc4c4ccnc2c34)cc1 | 25.5 µM | 63.8 µM | 20 µM | 38.2 µM | > 37.9 µM | > 58.5 µM | 46.7 µM | > 69.5 µM | 26.8 µM | > 68.6 µM | 16.3 µM | 31.2 µM | > 61.9 µM | > 100 µM | > 100 µM | > 100 µM | 21.2 µM | 58.2 µM | > 71.2 µM | > 100 µM |
